Test results taken from patent US7196229B2, “Benzoylcyclohexenone derivatives” (BASF Aktiengesellschaft, priority 2001, dated 2007).

tested on: ECHCG; experiment: greenhouse post-emergence herbicidal test; assay type: in vivo, barnyard grass; conditions: application rates of 0.125 or 0.0625 kg/ha
Text: (§1) The seeds of the test plants were sown separately for each species. For the post-emergence treatment, the test plants were first grown to a height of from 3 to 15 cm, depending on the plant habit, and only then treated with the active compounds which had been suspended or emulsified in water. The test plants were for this purpose either sown directly and grown in the same containers, or they were first grown separately as seedlings and transplanted into the test containers a few days prior to treatment. The application rate for the post-emergence treatment was 0.125 and 0.0625 kg of a.s. (active substance)/ha. Depending on the species, the plants were kept at 10–25° C. or 20–35° C. The test period extended over 2 to 4 weeks. During this time, the plants were tended, and their response to the individual treatments was evaluated. The evaluation was carried out using a scale from 0 to 100. 100 means no emergence of the plants, or complete destruction of at least the aerial parts and 0 means no damage, or normal course of growth. The plants used in the greenhouse experiments were of the following species: [table]

Compound	herbicidal post-emergence activity against ECHCG
Cc1c(C(=O)C2=C(O)CCCC2=O)ccc(S(C)(=O)=O)c1S(C)(=O)=O [Compound 2.1, 2-[2-Methyl-3,4-di(methylsulfonyl)benzoyl]cyclohexane-1,3-dione]	very good
Cc1c(C(=O)C2=C(O)CC(C)CC2=O)ccc(S(C)(=O)=O)c1S(C)(=O)=O (centres unmarked) [Compound 2.3]	very good
Cc1c(C(=O)C2=C(O)CCC(C)(C)C2=O)ccc(S(C)(=O)=O)c1S(C)(=O)=O [Compound 2.4]	very good
Cc1c(C(=O)C2=C(O)CC(C)(C)CC2=O)ccc(S(C)(=O)=O)c1S(C)(=O)=O [Compound 2.5]	very good
Cc1c(C(=O)C2=C(O)CCCC2=O)ccc(Cl)c1S(C)(=O)=O [Compound 2.6]	very good

tested on: ABUTH; experiment: greenhouse post-emergence herbicidal test; assay type: in vivo, velvetleaf; conditions: application rates of 0.125 or 0.0625 kg/ha
Text: as §1

Compound	herbicidal post-emergence activity against ABUTH
Cc1c(C(=O)C2=C(O)CCCC2=O)ccc(S(C)(=O)=O)c1S(C)(=O)=O [Compound 2.1, 2-[2-Methyl-3,4-di(methylsulfonyl)benzoyl]cyclohexane-1,3-dione]	very good
Cc1c(C(=O)C2=C(O)CC(C)CC2=O)ccc(S(C)(=O)=O)c1S(C)(=O)=O (centres unmarked) [Compound 2.3]	very good
Cc1c(C(=O)C2=C(O)CCCC2=O)ccc(Cl)c1S(C)(=O)=O [Compound 2.6]	very good

tested on: CHEAL; experiment: greenhouse post-emergence herbicidal test; assay type: in vivo, lambsquarters; conditions: application rates of 0.125 or 0.0625 kg/ha
Text: as §1

Compound	herbicidal post-emergence activity against CHEAL
Cc1c(C(=O)C2=C(O)CCCC2=O)ccc(S(C)(=O)=O)c1S(C)(=O)=O [Compound 2.1, 2-[2-Methyl-3,4-di(methylsulfonyl)benzoyl]cyclohexane-1,3-dione]	very good
Cc1c(C(=O)C2=C(O)CC(C)CC2=O)ccc(S(C)(=O)=O)c1S(C)(=O)=O (centres unmarked) [Compound 2.3]	very good
Cc1c(C(=O)C2=C(O)CCC(C)(C)C2=O)ccc(S(C)(=O)=O)c1S(C)(=O)=O [Compound 2.4]	very good
Cc1c(C(=O)C2=C(O)CC(C)(C)CC2=O)ccc(S(C)(=O)=O)c1S(C)(=O)=O [Compound 2.5]	very good

tested on: POLPE; experiment: greenhouse post-emergence herbicidal test; assay type: in vivo, ladys thumb; conditions: application rates of 0.125 or 0.0625 kg/ha
Text: as §1

Compound	herbicidal post-emergence activity against POLPE
Cc1c(C(=O)C2=C(O)CCCC2=O)ccc(S(C)(=O)=O)c1S(C)(=O)=O [Compound 2.1, 2-[2-Methyl-3,4-di(methylsulfonyl)benzoyl]cyclohexane-1,3-dione]	very good
Cc1c(C(=O)C2=C(O)CCCC2=O)ccc(Cl)c1S(C)(=O)=O [Compound 2.6]	very good

tested on: SETFA; experiment: greenhouse post-emergence herbicidal test; assay type: in vivo, giant foxtail; conditions: application rates of 0.125 or 0.0625 kg/ha
Text: as §1

Compound	herbicidal post-emergence activity against SETFA
Cc1c(C(=O)C2=C(O)CCC(C)(C)C2=O)ccc(S(C)(=O)=O)c1S(C)(=O)=O [Compound 2.4]	very good
Cc1c(C(=O)C2=C(O)CC(C)(C)CC2=O)ccc(S(C)(=O)=O)c1S(C)(=O)=O [Compound 2.5]	very good
Cc1c(C(=O)C2=C(O)CCCC2=O)ccc(Cl)c1S(C)(=O)=O [Compound 2.6]	very good

tested on: AMARE; experiment: greenhouse post-emergence herbicidal test; assay type: in vivo, redroot pigweed; conditions: application rates of 0.125 or 0.0625 kg/ha
Text: as §1

Compound	herbicidal post-emergence activity against AMARE
Cc1c(C(=O)C2=C(O)CC(C)(C)CC2=O)ccc(S(C)(=O)=O)c1S(C)(=O)=O [Compound 2.5]	very good

tested on: PHBPU; experiment: greenhouse post-emergence herbicidal test; assay type: in vivo, morning glory; conditions: application rates of 0.125 or 0.0625 kg/ha
Text: as §1

Compound	herbicidal post-emergence activity against PHBPU
Cc1c(C(=O)C2=C(O)CC(C)CC2=O)ccc(S(C)(=O)=O)c1S(C)(=O)=O (centres unmarked) [Compound 2.3]	very good
Cc1c(C(=O)C2=C(O)CCC(C)(C)C2=O)ccc(S(C)(=O)=O)c1S(C)(=O)=O [Compound 2.4]	very good

tested on: not given; experiment: not given; conditions: not given

Compound	melting point [°C]
Cc1c(C(=O)C2=C(O)CCCC2=O)ccc(S(C)(=O)=O)c1S(C)(=O)=O [Compound 2.1, 2-[2-Methyl-3,4-di(methylsulfonyl)benzoyl]cyclohexane-1,3-dione]	301 to 302
Cc1c(C(=O)C2=C(O)CC(C)CC2=O)ccc(S(C)(=O)=O)c1S(C)(=O)=O (centres unmarked) [Compound 2.3]	235 to 239
Cc1c(C(=O)C2=C(O)CCCC2=O)ccc(Cl)c1S(C)(=O)=O [Compound 2.6]	137 to 140
COc1ccc(C(=O)C2=C(O)CCCC2=O)c(C)c1S(C)(=O)=O [Compound 2.7]	121 to 129
COc1ccc(C(=O)C2=C(O)CC(C)(C)CC2=O)c(C)c1S(C)(=O)=O [Compound 2.8]	163 to 165
COc1ccc(C(=O)C2=C(O)CC(C)CC2=O)c(C)c1S(C)(=O)=O (centres unmarked) [Compound 2.9]	106 to 112
Cc1c(C(=O)C2=C(O)CCCC2=O)ccc(OC(F)F)c1S(C)(=O)=O [Compound 2.10]	64 to 69
Cc1c(C(=O)C2=C(n3cccn3)CCCC2=O)ccc(S(C)(=O)=O)c1S(C)(=O)=O [Compound 3.1]	275 to 277
Cc1c(C(=O)C2=C(n3cccn3)CC(C)CC2=O)ccc(S(C)(=O)=O)c1S(C)(=O)=O (centres unmarked) [Compound 3.2]	278 to 283
